# Assay results published in patent US20250339569A1, “CARBONIC ANHYDRASE IX LIGANDS” (priority 2021, published 2025).
# Like-named read-outs stand apart in the source and are kept apart here. Starred links: 1 amine or outer side, 2 acyl side, 3 side chain; linkers in the order of their positions; H or OH if unused. Positions of bridges follow the written chain, without caps; N, C: chain ends. Non-standard residues stand in square brackets, D forms with d. Residues, ends and D or L forms follow the SMILES beside them. *: point of attachment. Phe(3-NHCO(CH2)3SO2NH2) = N[C@@H](Cc1cccc(NC(=O)CCCS(N)(=O)=O)c1)C(=O)O; X3 = O=C(O)CN1CCN(CC(=O)O)CCN(CC(=O)NCCCOCCOCCOCCCN*)CCN(CC(=O)O)CC1; DOTA = O=C(O)CN1CCN(CC(=O)O)CCN(CC(=O)*)CCN(CC(=O)O)CC1; Phe(3,4-Cl2) = N[C@@H](Cc1ccc(Cl)c(Cl)c1)C(=O)O; Phe(4-NH2) = Nc1ccc(C[C@H](N)C(=O)O)cc1; mXylylene = c1cc(C[*:1])cc(C[*:2])c1; X46 = NS(=O)(=O)c1c[nH]c(C(=O)*)c1; X2 = O=C(CN1CCC(N[*:1])CC1)[*:2]; X52 = NS(=O)(=O)c1cnn(CC(=O)*)c1; X65 = NS(=O)(=O)c1ccc(C(=O)*)cn1; X1 = O=C(CN1CCN([*:1])CC1)[*:2]; Suc = O=C(CCC(=O)[*:2])[*:1]; X71 = O=C1NC(=O)C(CC(=O)*)N1; Dap = NC[C@H](N)C(=O)O; Sar = CNCC(=O)O
# How the values were obtained:
# [1] = target: T1, human carbonic anhydrase IX (hCAIX-Fc) (Homo sapiens, UniProt Q16790); test: Surface plasmon resonance assay with hCAIX-Fc; format: binding; details: 25° C.; for t1/2 category (activity): SPR dissociation half-life, hCAIX-Fc; for Kd: SPR, hCAIX-Fc captured, read-out: pKD category (activity) (converted)
# T1 construct: purchased SinoBliological (Sino Biological) 10107-H02H
# Procedure: Surface plasmon resonance (SPR) studies were performed using a Biacore™ T200 SPR system (GE Healthcare Life Sciences). Briefly, polarized light is directed towards a gold-labeled sensor surface, and minimum intensity reflected light is detected. The angle of reflected light changes as molecules bind and dissociate.
# Fc-fusion protein of human carbonic anhydrase IX (hCAIX-Fc, SinoBliological, Cat #10107-H02H) was captured on a Fc-capture chip (Biacore™ CM5 sensor chip coated with ˜300 RU of an Fc-binding peptide). Recombinant carbonic anydrase was diluted in Running Buffer (PBST, 0.1% DMSO) to a final concentration 100 or 200 nM and than flushed over the Fc-capture chip to immobilized ˜1000 RUs.
# Stock solutions of test compounds were prepared by dissolving each compound in DMSO. DMSO stock solution were diluted 1:1000 in Running Buffer without DMSO. Further sequencial dilutions were made with Running Buffer containing 0.1% DMSO. SPR binding analyses were performed in Single Cycle Kinetic (SCK) mode at 25° C. Flow cell coated with the Fc-binding peptide only served as reference flowcell. After each SCK run, carbonic andydrase IX was removed with 10 mM glycine buffer, pH 1.5.
# In between every three SCK measurements, a blank run with Running Buffer instead of test compound was included to correct for baseline drifts (double blanking methods).
# Table 11 describes the protocol steps for Fc-fusion target capturing and assessment of the binding kinetics.
# For each test compound, SPR raw data in the form of resonance units (RU) were plotted as sensorgrams using the Biacore™ T200 control software. The signal from the blank sensorgram was subtracted from that of the test compound sensorgram (blank corrected). The blank corrected sensorgram was corrected for baseline drift by subtracting the sensorgram of a SCK run without the test compound (running buffer only). The association rate (kon), dissociation rate (koff), dissociation constant (KD), and t1/2 were calculated from Blank-normalized SPR data using the 1:1 Langmuir binding model from the Biacore™ T200 evaluation software. Raw data and fit results were imported as text files in IDBS. The pKD value (negative decadic logarithm of dissociation constant) was calculated in the IDBS excel template.
# [2] = target: T2, CAIX-expressing human HT-29 colorectal cancer cells (Homo sapiens, UniProt Q16790); test: FACS binding assay (IC50 determination, competition with tracer 3BP-2776 or 3BP-4149); details: 4° C., 1 hour, read-out: pIC50 category (activity) (converted)
# T2 construct: CAIX-expressing human HT-29 colorectal cancer cells; host or cells: HT-29 human colorectal cancer cells
# Method in brief: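 HT-29 cells in FACS buffer (PBS, 1% FCS) at 500.000 cells/ml were exposed to compounds competing with a labelled tracer, with biotinylated compounds detected by 1 μg/mL APC-streptavidin for 30 min on ice. APC/Cy5 median fluorescence was read by flow cytometry and IC50 derived by 4PL fit.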
# [3] = FACS competition on HT-29 cells, Tracer ID 3BP-2776 (10 nM, biotin-labeled)
# [4] = FACS binding assay, HT-29 cells, competition with tracer 3BP-2776 (10 nM, biotin-labeled)
# [5] = FACS binding assay, HT-29 cells, competition with tracer 3BP-4149 (3 nM, Cy5-labeled)
SMILES,Kd [1],"IC50 [2, 4]",also measured
CC(C)C[C@@H]1NC(=O)[C@H](Cc2c[nH]c3ccccc23)NC(=O)[C@H](CC(=O)O)NC(=O)CN(C)C(=O)[C@H](CCC(=O)O)NC(=O)[C@@H](NC(=O)[C@H](Cc2ccc(O)cc2)NC(=O)[C@@H](NC(=O)CCC(=O)NCCCOCCOCCOCCCNC(=O)CN2CCN(CC(=O)O)CCN(CC(=O)O)CCN(CC(=O)O)CC2)C(C)C)CSCc2cccc(c2)CSC[C@@H](C(N)=O)NC(=O)[C@H](CCC(N)=O)NC(=O)[C@H](Cc2c[nH]c3ccccc23)NC(=O)[C@H]([C@@H](C)O)NC1=O [3BP-3271] ({X3-Suc}-VYCE[Sar]DWLTWQC-NH2; linker 3-12 via mXylylene),< 10 nM,–,"t1/2 category (activity) [1]: C (t1/2 between 2.1 and 5.0 minutes); IC50 [2, 3]: < 10 nM"
CC(C)C[C@@H]1NC(=O)[C@H](Cc2c[nH]c3ccccc23)NC(=O)[C@H](CC(=O)O)NC(=O)CNC(=O)[C@H](CCC(=O)O)NC(=O)[C@@H](NC(=O)[C@H](Cc2ccc(O)cc2)NC(=O)[C@@H](NC(=O)CCC(=O)NCCCOCCOCCOCCCNC(=O)CN2CCN(CC(=O)O)CCN(CC(=O)O)CCN(CC(=O)O)CC2)C(C)C)CSCc2cccc(c2)CSC[C@@H](C(N)=O)NC(=O)[C@H](C)NC(=O)[C@H](Cc2c[nH]c3ccccc23)NC(=O)[C@H]([C@@H](C)O)NC1=O [3BP-3272] ({X3-Suc}-VYCEGDWLTWAC-NH2; linker 3-12 via mXylylene),< 10 nM,–,"t1/2 category (activity) [1]: C (t1/2 between 2.1 and 5.0 minutes); IC50 [2, 3]: < 10 nM"
CC(C)C[C@@H]1NC(=O)[C@H](Cc2c[nH]c3ccccc23)NC(=O)[C@H](CC(=O)O)NC(=O)CNC(=O)[C@H](CCC(=O)O)NC(=O)[C@@H](NC(=O)[C@H](Cc2ccc(O)cc2)NC(=O)[C@@H](NC(=O)CCC(=O)NCCCOCCOCCOCCCNC(=O)CN2CCN(CC(=O)O)CCN(CC(=O)O)CCN(CC(=O)O)CC2)C(C)C)CSCc2cccc(c2)CSC[C@@H](C(N)=O)NC(=O)[C@H](CCC(N)=O)NC(=O)[C@H](Cc2c[nH]c3ccccc23)NC(=O)[C@H]([C@@H](C)O)NC1=O [3BP-3328] ({X3-Suc}-VYCEGDWLTWQC-NH2; linker 3-12 via mXylylene),< 10 nM,–,–
"CC(C)C[C@@H]1NC(=O)[C@H](Cc2ccc(Cl)c(Cl)c2)NC(=O)[C@H](CC(=O)O)NC(=O)[C@H]2CCCN2C(=O)[C@H](CCC(=O)O)NC(=O)[C@@H]2CSCc3cccc(c3)CSC[C@@H](C(N)=O)NC(=O)[C@H](CNC(=O)C[C@H](NC(=O)[C@@H](NC(=O)CN3CCC(NC(=O)CN4CCN(CC(=O)O)CCN(CC(=O)O)CCN(CC(=O)O)CC4)CC3)C(C)C)C(=O)N2)NC(=O)[C@H](Cc2c[nH]c3ccccc23)NC(=O)[C@H]([C@@H](C)O)NC1=O [3BP-4439] ({DOTA}-[X2]VDCE[dP]D[Phe(3,4-Cl2)]LTW[Dap]C-NH2; lactam 3-12; linker 4-13 via mXylylene)",< 10 nM,–,t1/2 category (activity) [1]: B (t1/2 between 5.1 and 15.0 minutes)
CC(C)C[C@@H]1NC(=O)[C@H](Cc2cccc(NC(=O)CCCS(N)(=O)=O)c2)NC(=O)[C@H](CC(=O)O)NC(=O)[C@H]2CCCN2C(=O)[C@H](CCC(=O)O)NC(=O)[C@@H](NC(=O)[C@H](CO)NC(=O)CN2CCN(C(=O)CN3CCN(CC(=O)O)CCN(CC(=O)O)CCN(CC(=O)O)CC3)CC2)CSCc2cccc(c2)CSC[C@@H](C(N)=O)NC(=O)[C@H](CO)NC(=O)[C@H](Cc2c[nH]c3ccccc23)NC(=O)[C@H]([C@@H](C)O)NC1=O [3BP-4450] ({DOTA}-[X1]SCE[dP]D[Phe(3-NHCO(CH2)3SO2NH2)]LTWSC-NH2; linker 3-12 via mXylylene),–,< 10 nM,–
CC(C)C[C@@H]1NC(=O)[C@H](Cc2cccc(NC(=O)CCCS(N)(=O)=O)c2)NC(=O)[C@H](CC(=O)O)NC(=O)[C@H]2CCCN2C(=O)[C@H](CCC(=O)O)NC(=O)[C@@H](NC(=O)[C@H](CCCNC(=N)N)NC(=O)CN2CCN(C(=O)CN3CCN(CC(=O)O)CCN(CC(=O)O)CCN(CC(=O)O)CC3)CC2)CSCc2cccc(c2)CSC[C@@H](C(N)=O)NC(=O)[C@H](CO)NC(=O)[C@H](Cc2c[nH]c3ccccc23)NC(=O)[C@H]([C@@H](C)O)NC1=O [3BP-4451] ({DOTA}-[X1]RCE[dP]D[Phe(3-NHCO(CH2)3SO2NH2)]LTWSC-NH2; linker 3-12 via mXylylene),–,< 10 nM,–
CC(C)C[C@@H]1NC(=O)[C@H](Cc2ccc(NC(=O)CC3NC(=O)NC3=O)cc2)NC(=O)[C@H](CC(=O)O)NC(=O)[C@H]2CCCN2C(=O)[C@H](CCC(=O)O)NC(=O)[C@@H](NC(=O)[C@H](Cc2ccc(O)cc2)NC(=O)[C@@H](NC(=O)CN2CCC(NC(=O)CN3CCN(CC(=O)O)CCN(CC(=O)O)CCN(CC(=O)O)CC3)CC2)C(C)C)CSCc2cccc(c2)CSC[C@@H](C(N)=O)NC(=O)[C@H](CO)NC(=O)[C@H](Cc2c[nH]c3ccccc23)NC(=O)[C@H]([C@@H](C)O)NC1=O (some centres unmarked) [3BP-4458] ({DOTA}-[X2]VYCE[dP]D[Phe(4-NH2)](X71)LTWSC-NH2; linker 4-13 via mXylylene),–,–,"IC50 [2, 5]: 10 to 79.4 nM"
CC(C)C[C@@H]1NC(=O)[C@H](Cc2ccc(NC(=O)c3ccc(S(N)(=O)=O)nc3)cc2)NC(=O)[C@H](CC(=O)O)NC(=O)[C@H]2CCCN2C(=O)[C@H](CCC(=O)O)NC(=O)[C@@H](NC(=O)[C@H](CCC(N)=O)NC(=O)CN2CCN(C(=O)CN3CCN(CC(=O)O)CCN(CC(=O)O)CCN(CC(=O)O)CC3)CC2)CSCc2cccc(c2)CSC[C@@H](C(N)=O)NC(=O)[C@H](CO)NC(=O)[C@H](Cc2c[nH]c3ccccc23)NC(=O)[C@H]([C@@H](C)O)NC1=O [3BP-4481] ({DOTA}-[X1]QCE[dP]D[Phe(4-NH2)](X65)LTWSC-NH2; linker 3-12 via mXylylene),–,–,"IC50 [2, 5]: 100 to 794 nM"
CC(C)C[C@@H]1NC(=O)[C@H](Cc2ccc(NC(=O)Cn3cc(S(N)(=O)=O)cn3)cc2)NC(=O)[C@H](CC(=O)O)NC(=O)[C@H]2CCCN2C(=O)[C@H](CCC(=O)O)NC(=O)[C@@H](NC(=O)[C@H](CCC(N)=O)NC(=O)CN2CCN(C(=O)CN3CCN(CC(=O)O)CCN(CC(=O)O)CCN(CC(=O)O)CC3)CC2)CSCc2cccc(c2)CSC[C@@H](C(N)=O)NC(=O)[C@H](CO)NC(=O)[C@H](Cc2c[nH]c3ccccc23)NC(=O)[C@H]([C@@H](C)O)NC1=O [3BP-4482] ({DOTA}-[X1]QCE[dP]D[Phe(4-NH2)](X52)LTWSC-NH2; linker 3-12 via mXylylene),–,–,"IC50 [2, 5]: 100 to 794 nM"
CC(C)C[C@@H]1NC(=O)[C@H](Cc2cccc(NC(=O)C3CCC(S(N)(=O)=O)CC3)c2)NC(=O)[C@H](CC(=O)O)NC(=O)[C@H]2CCCN2C(=O)[C@H](CCC(=O)O)NC(=O)[C@@H](NC(=O)[C@H](CCC(N)=O)NC(=O)CN2CCN(C(=O)CN3CCN(CC(=O)O)CCN(CC(=O)O)CCN(CC(=O)O)CC3)CC2)CSCc2cccc(c2)CSC[C@@H](C(N)=O)NC(=O)[C@H](CO)NC(=O)[C@H](Cc2c[nH]c3ccccc23)NC(=O)[C@H]([C@@H](C)O)NC1=O (some centres unmarked) [3BP-4787],–,100 to 794 nM,–
CC(C)C[C@@H]1NC(=O)[C@H](Cc2ccc(NC(=O)c3cc(S(N)(=O)=O)c[nH]3)cc2)NC(=O)[C@H](CC(=O)O)NC(=O)[C@H]2CCCN2C(=O)[C@H](CCC(=O)O)NC(=O)[C@@H](NC(=O)[C@H](CCC(N)=O)NC(=O)CN2CCN(C(=O)CN3CCN(CC(=O)O)CCN(CC(=O)O)CCN(CC(=O)O)CC3)CC2)CSCc2cccc(c2)CSC[C@@H](C(N)=O)NC(=O)[C@H](CO)NC(=O)[C@H](Cc2c[nH]c3ccccc23)NC(=O)[C@H]([C@@H](C)O)NC1=O [3BP-4814] ({DOTA}-[X1]QCE[dP]D[Phe(4-NH2)](X46)LTWSC-NH2; linker 3-12 via mXylylene),–,100 to 794 nM,–
CC(C)C[C@@H]1NC(=O)[C@H](Cc2cccc(NC(=O)Cn3cc(C(=O)NO)nn3)c2)NC(=O)[C@H](CC(=O)O)NC(=O)[C@H]2CCCN2C(=O)[C@H](CCC(=O)O)NC(=O)[C@@H](NC(=O)[C@H](CCC(N)=O)NC(=O)CN2CCN(C(=O)CN3CCN(CC(=O)O)CCN(CC(=O)O)CCN(CC(=O)O)CC3)CC2)CSCc2cccc(c2)CSC[C@@H](C(N)=O)NC(=O)[C@H](CO)NC(=O)[C@H](Cc2c[nH]c3ccccc23)NC(=O)[C@H]([C@@H](C)O)NC1=O [3BP-4847],–,100 to 794 nM,–
